Eight compounds from ChEMBL document CHEMBL1201862, “PubChem BioAssay data set” (2004) can be followed below.

Among the test systems are OVCAR-8; DMS-114; RPMI-8226; UACC-62; KM-20L2; RXF 393; HL-60; SK-MEL-5; KM12; HCT-15; COLO 205; TK-10; Malme-3M; HCT-116; OVCAR-3; PC-3; NCI/ADR-RES; MDA-MB-231; BT-549; MDA-N.
Common to all, as to experiment: NCI-60 cell line screen, 48 h

Each structure is given as a SMILES string.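 Cultured in 96-well plates, cells were exposed to test compound for 48 hours across five concentrations. GI50 is the concentration that inhibits growth by half.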 Activity calls are given as the source filed them. No stated cut-off is given here; in the data, active = GI50 up to about 1.1 µM and inactive = higher.

Turning to `COC(=O)CN(C)P(=O)(N1CC1)N1CC1`, the GI50 in the assay on OVCAR-8 was > 100 µM (inactive); with DMS-114 it was 55.1 µM (inactive); with RPMI-8226 it was > 100 µM (inactive); in the assay with UACC-62 it was 90.2 µM (inactive); in the assay on KM-20L2 it was > 100 µM (inactive); in the assay with RXF 393, > 100 µM (inactive). Further, the GI50 was 26.9 µM (inactive) with HL-60; > 100 µM (inactive) in the assay on SK-MEL-5; > 100 µM (inactive) in the assay on KM12; over 100 µM in the assay with HCT-15; > 100 µM (inactive) in the assay with COLO 205; > 100 µM (inactive) with TK-10. In the assay with Malme-3M, the GI50 was > 100 µM (inactive).

Take `CCN(CC)/[N+]([O-])=N/O`: the GI50 with OVCAR-8, in the assay with HCT-116, in the assay with UACC-62, with KM-20L2, with RXF 393 and in the assay with HL-60 was > 100 µM (inactive) in each case. Also, the GI50 with SK-MEL-5 was > 100 µM (inactive); with KM12, > 100 µM (inactive); in the assay on OVCAR-3, > 100 µM (inactive); with HCT-15, over 100 µM; in the assay on TK-10 it was > 100 µM (inactive).

For `CSC1SCC2C(=O)N(C)C(C(C)C)C(=O)OCC(NC(=O)c3cnc4ccccc4n3)C(=O)NC(C)C(=O)N(C)C1C(=O)N(C)C(C(C)C)C(=O)OCC(NC(=O)c1cnc3ccccc3n1)C(=O)NC(C)C(=O)N2C` (stereo not given), the GI50 was 0.0075 µM (active) with OVCAR-8; 0.000993 µM (active) in the assay with PC-3; 0.0454 µM (active) with NCI/ADR-RES; 0.00885 µM (active) in the assay with HCT-116; 0.0104 µM (active) with DMS-114; 0.0075 µM (active) with RPMI-8226. For the same compound, the GI50 is 0.0075 µM (active) in the assay on KM-20L2; 0.00895 µM (active) in the assay with RXF 393; 0.0193 µM (active) in the assay on HL-60; 0.0075 µM (active) in the assay with SK-MEL-5; 0.000906 µM (active) in the assay with MDA-MB-231; 0.0075 µM (active) in the assay with KM12. Further, the GI50 with OVCAR-3 was 0.0075 µM (active); in the assay with HCT-15, 0.0101 µM; in the assay with COLO 205, 0.0075 µM (active); in the assay with TK-10, 0.00152 µM (active); in the assay with BT-549 it was 0.00158 µM (active).

For `CCNC(=S)NNC(=O)c1nsc2ccccc12`, the GI50 with OVCAR-8 is > 100 µM (inactive); in the assay on HCT-116 it was 96.8 µM (inactive); in the assay on DMS-114, 95.5 µM (inactive); in the assay on RPMI-8226, 51.8 µM (inactive); in the assay on UACC-62, 63.8 µM (inactive); in the assay with KM-20L2, 64.9 µM (inactive). The GI50 was 44.6 µM (inactive) in the assay with RXF 393; 59.4 µM (inactive) in the assay with HL-60; 64.6 µM (inactive) in the assay on SK-MEL-5; 67.1 µM (inactive) in the assay on KM12; 49.1 µM (inactive) with OVCAR-3; 38.2 µM in the assay on HCT-15. Besides, the GI50 in the assay on COLO 205 and in the assay on TK-10 was > 100 µM (inactive) in each case.

Consider `CN(C)C(=O)Oc1c(Br)cc(Br)cc1C(=O)OCc1ccccc1`, for which the GI50 was 32.4 µM (inactive) in the assay on OVCAR-8; 18.5 µM (inactive) with NCI/ADR-RES; 14.5 µM (inactive) in the assay on HCT-116; 19.1 µM (inactive) in the assay on DMS-114; 19.5 µM (inactive) in the assay with RPMI-8226; 15.7 µM (inactive) in the assay with UACC-62. Further, the GI50 was 22.8 µM (inactive) in the assay with KM-20L2; 38.4 µM (inactive) in the assay on RXF 393; 21.4 µM (inactive) in the assay with HL-60; 13.1 µM (inactive) with SK-MEL-5; 28.7 µM (inactive) with KM12; 19.1 µM (inactive) with OVCAR-3. Also, the GI50 was 26.2 µM in the assay with HCT-15, 18.3 µM (inactive) with COLO 205 and 24.9 µM (inactive) with Malme-3M.

On to `COc1ccc(/N=C\c2ccc(N(CCC#N)S(=O)(=O)c3ccccc3)cc2C)cc1`, for which the GI50 was > 100 µM (inactive) with OVCAR-8; 87.1 µM (inactive) in the assay with HCT-116; 13.2 µM (inactive) with DMS-114; > 100 µM (inactive) in the assay with RPMI-8226; 8.99 µM (inactive) in the assay with UACC-62; 12 µM (inactive) in the assay on KM-20L2. Also, the GI50 in the assay on RXF 393 is > 100 µM (inactive); in the assay with HL-60 it was 16.9 µM (inactive); with SK-MEL-5 it was 51.1 µM (inactive); with OVCAR-3 it was 53.7 µM (inactive); in the assay with HCT-15, 8.53 µM; in the assay on COLO 205, 27.2 µM (inactive). In addition, the GI50 in the assay on TK-10 was 22.9 µM (inactive); with Malme-3M, 25.6 µM (inactive).

Take `O=C(Nc1ccc([N+](=O)[O-])cc1)C(=O)C(C(=O)c1ccccc1F)C1OC(=O)c2ccccc21` (stereo not given): the GI50 is 35.9 µM (inactive) in the assay on OVCAR-8; 31.6 µM (inactive) with HCT-116; 29 µM (inactive) in the assay on DMS-114; 18.2 µM (inactive) with RPMI-8226; 25.2 µM (inactive) with UACC-62; 33.9 µM (inactive) in the assay with KM-20L2. Also, the GI50 with RXF 393 is 50.9 µM (inactive); with HL-60, 22.2 µM (inactive); in the assay on SK-MEL-5 it was 48.5 µM (inactive); in the assay with KM12, 42.4 µM (inactive); in the assay with HCT-15, 29.9 µM; in the assay on COLO 205, 25.9 µM (inactive). In the assay on TK-10, the GI50 is > 100 µM (inactive).

For the compound `CC(=O)c1ccccc1NP(=O)(c1ccccc1)c1ccccc1`, the GI50 is > 100 µM (inactive) in the assay with OVCAR-8; > 100 µM (inactive) in the assay with PC-3; 14.1 µM (inactive) with NCI/ADR-RES; 53.2 µM (inactive) in the assay on HCT-116; 16.6 µM (inactive) in the assay on RPMI-8226; 35.2 µM (inactive) with UACC-62. Besides, the GI50 with RXF 393 was 43.2 µM (inactive); in the assay with HL-60, 33.2 µM (inactive); in the assay with SK-MEL-5, 47.3 µM (inactive); in the assay on MDA-MB-231 it was 32.5 µM (inactive); with KM12, 50.7 µM (inactive); in the assay with OVCAR-3 it was 43.1 µM (inactive). The GI50 was 66.4 µM with HCT-15; 13.2 µM (inactive) with COLO 205; 36.9 µM (inactive) in the assay with MDA-N; 40.8 µM (inactive) with TK-10; > 100 µM (inactive) in the assay with BT-549; 34 µM (inactive) with Malme-3M.
